Reference: the supplement of paper PMC4862054

Tested on: CAL-51
Assay: normalised response (% of control), CellTiter-Glo; higher = more viable cells (100 = DMSO, 0 = benzethonium chloride kill control)
Conditions: incubation time: 72 h
How it was run: (§1)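 Breast cancer cell lines (20 µl suspension) were seeded into 384-well plates holding compound at 5 concentrations in 10-fold steps over a compound-specific 10,000-fold range, then incubated 72 h. CellTox Green fluorescence (485/520 nm) was read first, then CellTiter-Glo luminescence after 10 min at room temperature. Each plate was normalised to 0.1 % DMSO (100) and a positive kill control (0). Each value is the normalised signal at a single concentration of the series.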

**Q.** For `CCn1c(-c2nonc2N)nc2cnc(Oc3cccc(NC(=O)c4ccc(OCCN5CCOCC5)cc4)c3)cc21` (1 nM), which normalised response is on record?
**A.** 114%

**Q.** Which normalised response does the source give for `CCn1c(-c2nonc2N)nc2cnc(Oc3cccc(NC(=O)c4ccc(OCCN5CCOCC5)cc4)c3)cc21` (10 nM) here?
**A.** 121%

**Q.** With `N#Cc1ccc(COC[C@H]2O[C@@H](n3c(NCc4ccc(Cl)c(Cl)c4)nc4c(N)ncnc43)[C@H](O)[C@@H]2O)cc1` (10 nM) as the molecule, how does the normalised response read?
**A.** 76.3%

**Q.** With `COc1cc(O)c2c(c1)/C=C/C[C@H](O)[C@H](O)C(=O)/C=C\C[C@H](C)OC2=O` [(5Z)-7-Oxozeaenol] (1 nM) as the molecule, how does the normalised response read?
**A.** 93.9%

**Q.** With `COc1cc(O)c2c(c1)/C=C/C[C@H](O)[C@H](O)C(=O)/C=C\C[C@H](C)OC2=O` [(5Z)-7-Oxozeaenol] (10 nM) as the molecule, how does the normalised response read?
**A.** 107%

**Q.** For `COc1cc(OC2CCN(C)CC2)ccc1Nc1ncc2c(n1)n(C1CCCC1)c(=O)n2C` [AZ 3146] (10 nM), which normalised response is on record?
**A.** 132%

**Q.** Which normalised response does the source give for `CNC(=O)c1cccc(-c2ccc3c(N4CCOC[C@@H]4C)nc(N4CCOC[C@@H]4C)nc3n2)c1` [AZD2014] (1 nM) here?
**A.** 125%

**Q.** `CNC(=O)c1cccc(-c2ccc3c(N4CCOC[C@@H]4C)nc(N4CCOC[C@@H]4C)nc3n2)c1` [AZD2014] (10 nM) was tested. Which normalised response did it give?
**A.** 105%

**Q.** Which normalised response does the source give for `CN(C)c1nc(N(C)C)nc(N(C)C)n1` [Altretamine] (10 nM) here?
**A.** 101%

**Q.** For `O=C(/C=C/c1cccc(S(=O)(=O)Nc2ccccc2)c1)NO` [Belinostat] (10 nM), which normalised response is on record?
**A.** 80.2%

**Q.** For `Nc1cc(C(F)(F)F)c(-c2cc(N3CCOCC3)nc(N3CCOCC3)n2)cn1` [Buparlisib] (1 nM), which normalised response is on record?
**A.** 112%

**Q.** How did the normalised response turn out when `Nc1cc(C(F)(F)F)c(-c2cc(N3CCOCC3)nc(N3CCOCC3)n2)cn1` [Buparlisib] (10 nM) was run?
**A.** 113%

**Q.** For `O=P1(N(CCCl)CCCl)NCCCO1` (centres undefined) [Cyclophosphamide] (40 nM), which normalised response is on record?
**A.** 79.3%

**Q.** With `CNC(=O)c1ccc(N2C(=S)N(c3ccc(C#N)c(C(F)(F)F)c3)C(=O)C2(C)C)cc1F` [Enzalutamide] (1 nM) as the molecule, how does the normalised response read?
**A.** 109%

**Q.** Which normalised response does the source give for `CNC(=O)c1ccc(N2C(=S)N(c3ccc(C#N)c(C(F)(F)F)c3)C(=O)C2(C)C)cc1F` [Enzalutamide] (10 nM) here?
**A.** 124%

**Q.** With `C=C1C[C@@H]2[C@H](CC[C@]3(C)C(=O)CC[C@@H]23)[C@@]2(C)C=CC(=O)C=C12` [Exemestane] (10 nM) as the molecule, how does the normalised response read?
**A.** 70.2%

**Q.** `Cc1cc(Nc2cc(CN3CCOCC3)c3nc(C)c(Cc4ccc(Cl)cc4F)n3n2)n[nH]1` [Gandotinib] (10 nM) was tested. Which normalised response did it give?
**A.** 92%

**Q.** How did the normalised response turn out when `O=C(Nc1ccncc1)C(=O)c1cn(Cc2ccc(Cl)cc2)c2ccccc12` [Indibulin] (10 nM) was run?
**A.** 86.5%

**Q.** With `Cc1ccc(NC(=O)c2ccc(CN3CCN(C)CC3)cc2)cc1Nc1nc(-c2cccnc2)cs1` [Masitinib] (10 nM) as the molecule, how does the normalised response read?
**A.** 99.4%

**Q.** `Cc1[nH]c2ccccc2c1CCNCc1ccc(/C=C/C(=O)NO)cc1` [Panobinostat] (1 nM) was tested. Which normalised response did it give?
**A.** 118%

**Q.** For `COCC1(CO)C(=O)C2CCN1CC2` (centres undefined) [Prima-1 Met] (10 nM), which normalised response is on record?
**A.** 124%

Tested on: CAL-85-1
Assay: as above
Conditions: incubation time: 72 h
How it was run: as §1

**Q.** `CCn1c(-c2nonc2N)nc2cnc(Oc3cccc(NC(=O)c4ccc(OCCN5CCOCC5)cc4)c3)cc21` (1 nM) was tested. Which normalised response did it give?
**A.** 101%

**Q.** `CCn1c(-c2nonc2N)nc2cnc(Oc3cccc(NC(=O)c4ccc(OCCN5CCOCC5)cc4)c3)cc21` (10 nM) was tested. Which normalised response did it give?
**A.** 102%

**Q.** For `N#Cc1ccc(COC[C@H]2O[C@@H](n3c(NCc4ccc(Cl)c(Cl)c4)nc4c(N)ncnc43)[C@H](O)[C@@H]2O)cc1` (10 nM), which normalised response is on record?
**A.** 98.1%

**Q.** With `COc1cc(O)c2c(c1)/C=C/C[C@H](O)[C@H](O)C(=O)/C=C\C[C@H](C)OC2=O` [(5Z)-7-Oxozeaenol] (1 nM) as the molecule, how does the normalised response read?
**A.** 95.2%

**Q.** How did the normalised response turn out when `COc1cc(O)c2c(c1)/C=C/C[C@H](O)[C@H](O)C(=O)/C=C\C[C@H](C)OC2=O` [(5Z)-7-Oxozeaenol] (10 nM) was run?
**A.** 96.4%

**Q.** Which normalised response does the source give for `COc1cc(OC2CCN(C)CC2)ccc1Nc1ncc2c(n1)n(C1CCCC1)c(=O)n2C` [AZ 3146] (10 nM) here?
**A.** 102%

**Q.** For `CNC(=O)c1cccc(-c2ccc3c(N4CCOC[C@@H]4C)nc(N4CCOC[C@@H]4C)nc3n2)c1` [AZD2014] (1 nM), which normalised response is on record?
**A.** 95%

**Q.** `CNC(=O)c1cccc(-c2ccc3c(N4CCOC[C@@H]4C)nc(N4CCOC[C@@H]4C)nc3n2)c1` [AZD2014] (10 nM) was tested. Which normalised response did it give?
**A.** 97.6%

**Q.** Which normalised response does the source give for `CN(C)c1nc(N(C)C)nc(N(C)C)n1` [Altretamine] (10 nM) here?
**A.** 101%

**Q.** With `O=C(/C=C/c1cccc(S(=O)(=O)Nc2ccccc2)c1)NO` [Belinostat] (10 nM) as the molecule, how does the normalised response read?
**A.** 93.8%

**Q.** How did the normalised response turn out when `Nc1cc(C(F)(F)F)c(-c2cc(N3CCOCC3)nc(N3CCOCC3)n2)cn1` [Buparlisib] (1 nM) was run?
**A.** 92.3%

**Q.** How did the normalised response turn out when `Nc1cc(C(F)(F)F)c(-c2cc(N3CCOCC3)nc(N3CCOCC3)n2)cn1` [Buparlisib] (10 nM) was run?
**A.** 96.5%

**Q.** With `O=P1(N(CCCl)CCCl)NCCCO1` (centres undefined) [Cyclophosphamide] (40 nM) as the molecule, how does the normalised response read?
**A.** 98.7%

**Q.** For `CNC(=O)c1ccc(N2C(=S)N(c3ccc(C#N)c(C(F)(F)F)c3)C(=O)C2(C)C)cc1F` [Enzalutamide] (1 nM), which normalised response is on record?
**A.** 95.6%

**Q.** Which normalised response does the source give for `CNC(=O)c1ccc(N2C(=S)N(c3ccc(C#N)c(C(F)(F)F)c3)C(=O)C2(C)C)cc1F` [Enzalutamide] (10 nM) here?
**A.** 93.5%

**Q.** For `C=C1C[C@@H]2[C@H](CC[C@]3(C)C(=O)CC[C@@H]23)[C@@]2(C)C=CC(=O)C=C12` [Exemestane] (10 nM), which normalised response is on record?
**A.** 108%

**Q.** Which normalised response does the source give for `Cc1cc(Nc2cc(CN3CCOCC3)c3nc(C)c(Cc4ccc(Cl)cc4F)n3n2)n[nH]1` [Gandotinib] (10 nM) here?
**A.** 101%

**Q.** For `O=C(Nc1ccncc1)C(=O)c1cn(Cc2ccc(Cl)cc2)c2ccccc12` [Indibulin] (10 nM), which normalised response is on record?
**A.** 99.9%

**Q.** Which normalised response does the source give for `Cc1ccc(NC(=O)c2ccc(CN3CCN(C)CC3)cc2)cc1Nc1nc(-c2cccnc2)cs1` [Masitinib] (10 nM) here?
**A.** 99.7%

**Q.** `Cc1[nH]c2ccccc2c1CCNCc1ccc(/C=C/C(=O)NO)cc1` [Panobinostat] (1 nM) was tested. Which normalised response did it give?
**A.** 104%

**Q.** For `COCC1(CO)C(=O)C2CCN1CC2` (centres undefined) [Prima-1 Met] (10 nM), which normalised response is on record?
**A.** 103%

Tested on: HCC1143
Assay: as above
Conditions: incubation time: 72 h
How it was run: as §1

**Q.** For `CCn1c(-c2nonc2N)nc2cnc(Oc3cccc(NC(=O)c4ccc(OCCN5CCOCC5)cc4)c3)cc21` (1 nM), which normalised response is on record?
**A.** 103%

**Q.** Which normalised response does the source give for `CCn1c(-c2nonc2N)nc2cnc(Oc3cccc(NC(=O)c4ccc(OCCN5CCOCC5)cc4)c3)cc21` (10 nM) here?
**A.** 101%

**Q.** How did the normalised response turn out when `N#Cc1ccc(COC[C@H]2O[C@@H](n3c(NCc4ccc(Cl)c(Cl)c4)nc4c(N)ncnc43)[C@H](O)[C@@H]2O)cc1` (10 nM) was run?
**A.** 107%

**Q.** For `COc1cc(O)c2c(c1)/C=C/C[C@H](O)[C@H](O)C(=O)/C=C\C[C@H](C)OC2=O` [(5Z)-7-Oxozeaenol] (1 nM), which normalised response is on record?
**A.** 106%

**Q.** Which normalised response does the source give for `COc1cc(O)c2c(c1)/C=C/C[C@H](O)[C@H](O)C(=O)/C=C\C[C@H](C)OC2=O` [(5Z)-7-Oxozeaenol] (10 nM) here?
**A.** 108%

**Q.** `COc1cc(OC2CCN(C)CC2)ccc1Nc1ncc2c(n1)n(C1CCCC1)c(=O)n2C` [AZ 3146] (10 nM) was tested. Which normalised response did it give?
**A.** 100%

**Q.** `CNC(=O)c1cccc(-c2ccc3c(N4CCOC[C@@H]4C)nc(N4CCOC[C@@H]4C)nc3n2)c1` [AZD2014] (1 nM) was tested. Which normalised response did it give?
**A.** 104%
